Laboratory results taken from US5089623A, “Certain imidate insecticides” (Imperial Chemical Industries Plc, priority 1990, dated 1992).

Columns and labels:
Type in all cases: in vivo
[1] = system: Tobacco Budworm [Heliothis virescens (Fabricius)] eggs; assay: Tobacco budworm egg test (TBW-E); conditions: percent in solution
[2] = system: Tobacco Budworm [Heliothis virescens (Fabricius)]; assay: Tobacco budworm contact test (TBW-C); conditions: second-instar larvae, 5 days, percent in solution
Method in brief: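 Cotton cotyledons dipped 2–3 s in compound in 50:50 acetone–water, dried, then infested with 5 second-instar larvae and held 5 days at high humidity before scoring mortality.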

[3] = system: Rice water weevil [Lissorhoptrus oryzophilus (Kuschel)]; assay: Rice water weevil test (RWW); conditions: per weevil, topical, female adults, 48 hours
Experimental: The compounds in Tables 1 and 2 above were tested for insecticidal activity using the following testing procedures. LC50 values, based on the results of these tests and calculated according to dosage-mortality curves, are expressed in Table 3.
Rice water weevil [Lissorhoptrus oryzophilus (Kuschel)]
Test compounds were diluted in acetone. Droplets (1 ul) of test solutions were applied to the ventral abdomens of ten female adult weevils. The treated weevils were placed in containers with wet cotton balls and rice foliage. The containers were covered and kept at a temperature of about 25° C. Mortality was recorded after 48 hours. […] The LC50 values are expressed below in Table 3 under the heading "RWW" in terms of μg of test compound per weevil.

[4] = system: Cabbage Looper [Trichoplusia ni (Hubner)]; assay: Cabbage looper test (CL); conditions: second-instar larvae, 3-5 days, percent in solution
[5] = system: Aster Leafhopper [Macrosteles fascifrens (Stal)]; assay: Aster leafhopper test (LH); conditions: adults/nymphs, 48 hours, percent in solution
[6] = system: Housefly [Musca domestica]; assay: Housefly insecticidal test (HF); conditions: per 25 female houseflies, 48 hours
[7] = system: Maize weevil [Sitophilus Zeamais (Motschulsky)]; assay: Maize weevil test (MW); conditions: adult weevils, treated corn seeds, 48 hours, percent in solution
Method in brief: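 Adult weevils (10) were placed with four corn seeds that had been dipped 2-3 s in compound dissolved in 50:50 acetone:water, then dried, and held at about 25° C. Mortality was scored at 48 h. LC50 was taken from dosage-mortality curves and expressed as percent compound in solution, from a 0.01% top concentration.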

[8] = system: Beet Armyworm (Spodoptera exigua); assay: Beet armyworm test (BAW); conditions: second-instar larvae, five days, percent in solution
Method in brief: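 Sugar beet leaves were dipped 2-3 s in compound diluted in 50-50 acetone-water, dried, then infested with five second-instar larvae in humid dishes. Mortality was scored after five days at concentrations from 0.1% downward. LC50 was taken from dosage-mortality curves as percent compound in solution.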

| SMILES | LC50 TBW E [1] [%] | LC50 TBW C [2] [%] | LC50 RWW [3] [µg] | LC50 CL [4] [%] | LC50 LH [5] [%] | LC50 HF [6] [µg] | LC50 MW [7] [%] | LC50 BAW [8] [%] |
| --- | --- | --- | --- | --- | --- | --- | --- | --- |
| CC(C)C(=Nc1ccc(F)c(Cl)c1F)OCc1ccc(F)c(Oc2ccccc2)c1 [Compound 451] | > 0.1 | 0.00025 | 0.065 | 0.0001 | 0.0002 | 3.6 | 0.0051 |  |
| CC(C)C(=Nc1ccc(F)c(F)c1)OCc1ccc(F)c(Oc2ccc(Cl)cc2)c1 [Compound 295] | 0.01 | 0.0005 | > 2.5 | 0.00004 | 0.0001 | 7.8 | 0.0053 |  |
| CC(C)C(=Nc1ccc(C(F)(F)F)cc1)OCc1ccc(F)c(Oc2ccc(Cl)cc2)c1 [Compound 324] | 0.025 | 0.0004 | 0.06 | 0.00014 |  | > 100 |  | 0.0024 |
| CC(C)C(=Nc1cc(F)cc(F)c1)OCc1cccc(Oc2ccccc2)c1 [Compound 55] | 0.06 | 0.004 | > 2.5 | 0.0017 | 0.0005 | > 100 |  | 0.006 |
| CC(C)C(=Nc1ccc(F)c(Cl)c1F)OCc1ccc(F)c(Oc2ccc(F)cc2)c1 [Compound 330] | 0.037 | 0.00035 | 0.06 | 0.00012 | < 0.05 | 5 | 0.001 |  |
| CC(C)C(=Nc1ccc(F)c(F)c1)OCc1ccc(F)c(Oc2ccccc2)c1 [Compound 336] | 0.02 | 0.0005 | > 2.5 | 0.00017 |  | 3.6 | 0.0091 | 0.001 |
| CC(C)C(=Nc1ccc2c(c1)OC(F)(F)O2)OCc1cccc(Oc2ccc(F)cc2)c1 [Compound 244] | > 0.1 | 0.00025 | 0.09 | 0.00004 |  | 14 | 0.0025 | 0.002 |
| CC(C)C(=Nc1ccc(F)c(C(F)(F)F)c1)OCc1ccc(F)c(Oc2ccccc2)c1 [Compound 300] | 0.024 | 0.001 | 0.075 | 0.0003 | 0.00002 | 14 | 0.01 |  |
| CC(C)C(=Nc1ccc(Cl)c(Cl)c1)OCc1ccc(F)c(Oc2ccc(Cl)cc2)c1 [Compound 296] | 0.025 | 0.00045 | 0.14 | 0.00025 | 0.0003 | 38 |  |  |
| CC(C)C(=Nc1ccc(F)c(I)c1)OCc1ccc(F)c(Oc2ccc(F)cc2)c1 [Compound 281] | 0.006 | 0.00025 | > 2.5 | 0.00002 |  | 5 | 0.005 | 0.0027 |
| CC(C)C(=Nc1ccc2c(c1)OC(F)(F)O2)OCc1ccc(F)c(Oc2ccccc2)c1 [Compound 285] | 0.005 | 0.00017 | 0.13 | 0.000075 |  | 36 | 0.005 | 0.0006 |
| CC(C)C(=Nc1ccc(C(F)(F)F)cc1)OCc1ccc(F)c(Oc2ccccc2)c1 [Compound 337] | 0.008 | 0.0005 | 0.067 | 0.0007 |  | 21 | 0.0053 | 0.0005 |
| CC(C)C(=Nc1ccc(F)cc1)OCc1ccc(F)c(Oc2ccc(Cl)cc2)c1 [Compound 325] | 0.037 | 0.0006 | > 2.5 | 0.00012 |  | 5 |  | 0.0025 |
| CC(C)C(=Nc1ccc(F)c(Br)c1)OCc1ccc(F)c(Oc2ccc(Cl)cc2)c1 [Compound 298] | 0.015 | 0.0008 | > 2.5 | 0.0001 | 0.0001 | 13 | 0.008 |  |
| CC(C)C(=Nc1ccc(F)c(Cl)c1F)OCc1cccc(Oc2ccc(Cl)cc2)c1 [Compound 331] | 0.04 | 0.0004 | > 2.5 | 0.0002 |  | 20 |  | 0.002 |
| CC(C)C(=Nc1ccc2c(c1)OC(F)(F)O2)OCc1cccc(Oc2ccccc2)c1 [Compound 245] | 0.016 | 0.0015 | > 2.5 | 0.0035 |  | 20 | 0.006 | 0.001 |
| CC(C)C(=Nc1ccc(OC(F)(F)F)cc1)OCc1ccc(F)c(Oc2ccccc2)c1 [Compound 338] | 0.01 | 0.00037 | 0.044 | 0.000065 |  | 26 | 0.0053 |  |
| CC(C)C(=Nc1ccc2c(c1)OCO2)OCc1ccc(F)c(Oc2ccccc2)c1 [Compound 181] | 0.01 | 0.001 | > 2.5 | 0.0005 |  | 25 | 0.005 | 0.001 |
| CC(C)C(=Nc1ccc(F)c(Cl)c1)OCc1cccc(Oc2ccc(F)cc2)n1 [Compound 461] | 0.01 |  | > 2.5 | 0.00008 |  | 6 | 0.0075 | 0.0035 |
| FC(F)(F)c1cccc(N=C(OCc2cccc(Oc3ccccc3)c2)C(Cl)Cl)c1 [Compound 66] | 0.06 |  | > 2.5 | < 0.0025 | 0.001 | 9.7 |  | 0.0065 |
| CC(C)C(=Nc1ccc(F)c(Cl)c1)OCc1cccc(Oc2ccc(F)cc2F)c1 [Compound 191] | 0.04 |  | > 2.5 | 0.00023 | > 0.05 | 29 | 0.004 |  |
